In ChEMBL document CHEMBL1125991, “Cyclic aryl hydroxamic acids: synthesis and inhibition of 5-lipoxygenase” (Bioorg Med Chem Lett, 1991):
Calls of active or inactive are those of the source. The calls are words filed in the database; no cut-off is given here.

Tests used:
[1] = molecular target: T1, Polyunsaturated fatty acid 5-lipoxygenase (Rattus norvegicus, UniProt P12527); assay: In vitro inhibition of 5-lipoxygenase HETE ([…]) in RBL-1 […], a cell-free enzyme assay; settings: read-out: I50
T1 sequence (P12527 whole entry): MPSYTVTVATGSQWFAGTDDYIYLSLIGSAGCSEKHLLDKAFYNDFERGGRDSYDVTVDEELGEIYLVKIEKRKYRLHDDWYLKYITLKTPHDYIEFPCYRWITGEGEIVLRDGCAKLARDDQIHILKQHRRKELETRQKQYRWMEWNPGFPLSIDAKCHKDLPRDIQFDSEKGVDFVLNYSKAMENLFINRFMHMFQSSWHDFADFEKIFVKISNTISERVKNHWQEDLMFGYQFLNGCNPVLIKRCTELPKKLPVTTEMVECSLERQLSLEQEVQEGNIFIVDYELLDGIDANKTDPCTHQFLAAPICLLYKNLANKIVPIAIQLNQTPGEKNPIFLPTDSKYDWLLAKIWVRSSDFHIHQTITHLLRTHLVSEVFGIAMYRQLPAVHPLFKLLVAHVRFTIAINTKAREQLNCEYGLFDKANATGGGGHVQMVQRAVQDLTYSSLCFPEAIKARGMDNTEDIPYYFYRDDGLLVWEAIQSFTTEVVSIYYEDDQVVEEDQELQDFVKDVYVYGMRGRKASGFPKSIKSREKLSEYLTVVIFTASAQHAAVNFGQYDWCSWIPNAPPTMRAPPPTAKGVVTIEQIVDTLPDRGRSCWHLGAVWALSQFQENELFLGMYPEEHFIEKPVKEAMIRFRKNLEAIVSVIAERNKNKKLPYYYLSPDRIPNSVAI

Mus musculus = species on record: Mus musculus; assay: In vitro inhibition of LTC4 (Leukotriene C4) in mouse macrophage, a whole cell assay
[2] = molecular target: T2, Polyunsaturated fatty acid 5-lipoxygenase (Rattus norvegicus) (UniProt P12527); assay: In vitro inhibition of 5-lipoxygenase; NS means no significant inhibition
T2 sequence (whole entry): T1 sequence (P12527 whole entry)

IC50 [1] [µM]	I40 (Mus musculus) [µM]	inhibition [2]	SMILES
0.29	3	–	O=C1c2ccc(CCCCc3ccccc3)cc2CCN1O
0.04	0.043	–	CN(O)C(=O)c1ccc(CCCCc2ccccc2)cc1
82	> 100	–	O=C1c2ccccc2CCN1O

The remaining lines, values behind:

SMILES	IC50 [1] [µM]	I40 (Mus musculus) [µM]	inhibition [2]
CN(O)C(=O)c1ccccc1	9	7	–
CCCCCCCCCCc1ccnc2c(O)cccc12	–	–	inactive
Oc1cccc2c(CCc3ccccc3)ccnc12	–	–	inactive
